Patent EP0726263A2, “Herbicidal (1,3,4)oxadiazoles and thiadiazoles” (American Cyanamid Company, priority 1995, dated 1996)

Key:
Assay type in all cases: in vivo
[1] = test system: Helianthus annuus; assay: Herbicidal activity, postemergence test; settings: post; sprayed onto seedling plants, 800 g of active material per hectare; evaluated 2 weeks after treatment
How it was run: (§1)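 First, test compound in acetone containing 0.4% Triton X-155 is diluted with water. Next, it is sprayed at 800 g/ha (900 L/ha) onto freshly seeded loam (pre) or onto seedlings (post). Finally, plants are scored 0-9 visually after 3 or 2 weeks, respectively.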

[2] = test system: Ipomoea hederacea; assay: Herbicidal activity, postemergence test; settings: post; sprayed onto seedling plants, 800 g of active material per hectare; evaluated 2 weeks after treatment
How it was run: as §1

[3] = test system: Ambrosia artemisifolia; assay: Herbicidal activity, postemergence test; settings: post; sprayed onto seedling plants, 800 g of active material per hectare; evaluated 2 weeks after treatment
How it was run: as §1

[4] = test system: Veronica persica; assay: Herbicidal activity, postemergence test; settings: post; sprayed onto seedling plants, 800 g of active material per hectare; evaluated 2 weeks after treatment
How it was run: as §1

[5] = test system: Hordeum vulgare; assay: Herbicidal activity, postemergence test; settings: post; sprayed onto seedling plants, 800 g of active material per hectare; evaluated 2 weeks after treatment
How it was run: as §1

[6] = test system: Galium aparine; assay: Herbicidal activity, postemergence test; settings: post; sprayed onto seedling plants, 800 g of active material per hectare; evaluated 2 weeks after treatment
How it was run: as §1

[7] = test system: Abutilon theophrasti; assay: Herbicidal activity, postemergence test; settings: post; sprayed onto seedling plants, 800 g of active material per hectare; evaluated 2 weeks after treatment
How it was run: as §1

[8] = test system: Echinochloa crus-galli; assay: Herbicidal activity, postemergence test; settings: post; sprayed onto seedling plants, 800 g of active material per hectare; evaluated 2 weeks after treatment
How it was run: as §1

[9] = test system: Viola arvensis; assay: Herbicidal activity, postemergence test; settings: post; sprayed onto seedling plants, 800 g of active material per hectare; evaluated 2 weeks after treatment
How it was run: as §1

[10] = test system: Stellaria media; assay: Herbicidal activity, postemergence test; settings: post; sprayed onto seedling plants, 800 g of active material per hectare; evaluated 2 weeks after treatment
How it was run: as §1

[11] = test system: Triticum aestivum; assay: Herbicidal activity, postemergence test; settings: post; sprayed onto seedling plants, 800 g of active material per hectare; evaluated 2 weeks after treatment
How it was run: as §1

[12] = test system: Alopecurus myosuroides; assay: Herbicidal activity, postemergence test; settings: post; sprayed onto seedling plants, 800 g of active material per hectare; evaluated 2 weeks after treatment
How it was run: as §1

[13] = test system: Lamium purpureum; assay: Herbicidal activity, postemergence test; settings: post; sprayed onto seedling plants, 800 g of active material per hectare; evaluated 2 weeks after treatment
How it was run: as §1

[14] = test system: Setaria viridis; assay: Herbicidal activity, postemergence test; settings: post; sprayed onto seedling plants, 800 g of active material per hectare; evaluated 2 weeks after treatment
How it was run: as §1

[15] = test system: Zea mays; assay: Herbicidal activity, postemergence test; settings: post; sprayed onto seedling plants, 800 g of active material per hectare; evaluated 2 weeks after treatment
How it was run: as §1

[16] = test system: Amaranthus retroflexus; assay: Herbicidal activity, postemergence test; settings: post; sprayed onto seedling plants, 800 g of active material per hectare; evaluated 2 weeks after treatment
How it was run: as §1

[17] = test system: Gossypium hirsutum; assay: Herbicidal activity, postemergence test; settings: post; sprayed onto seedling plants, 800 g of active material per hectare; evaluated 2 weeks after treatment
How it was run: as §1

[18] = test system: Glycine max; assay: Herbicidal activity, postemergence test; settings: post; sprayed onto seedling plants, 800 g of active material per hectare; evaluated 2 weeks after treatment
How it was run: as §1

[19] = test system: Helianthus annuus; assay: Herbicidal activity, preemergence test; settings: pre; sprayed onto soil, 800 g of active material per hectare; evaluated 3 weeks after treatment
How it was run: (§2)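 Scored visually on a 0-9 scale against untreated sown soil 3 weeks after application. Seeds freshly sown in prepared loam received a soil spray of 800 g/ha active material, applied as a water-diluted acetone solution with 0.4% TRITON X-155 at 900 L/ha.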

[20] = test system: Ipomoea hederacea; assay: Herbicidal activity, preemergence test; settings: pre; sprayed onto soil, 800 g of active material per hectare; evaluated 3 weeks after treatment
How it was run: as §2

[21] = test system: Ambrosia artemisifolia; assay: Herbicidal activity, preemergence test; settings: pre; sprayed onto soil, 800 g of active material per hectare; evaluated 3 weeks after treatment
How it was run: as §2

[22] = test system: Veronica persica; assay: Herbicidal activity, preemergence test; settings: pre; sprayed onto soil, 800 g of active material per hectare; evaluated 3 weeks after treatment
How it was run: as §2

[23] = test system: Hordeum vulgare; assay: Herbicidal activity, preemergence test; settings: pre; sprayed onto soil, 800 g of active material per hectare; evaluated 3 weeks after treatment
How it was run: as §2

[24] = test system: Galium aparine; assay: Herbicidal activity, preemergence test; settings: pre; sprayed onto soil, 800 g of active material per hectare; evaluated 3 weeks after treatment
How it was run: as §2

[25] = test system: Abutilon theophrasti; assay: Herbicidal activity, preemergence test; settings: pre; sprayed onto soil, 800 g of active material per hectare; evaluated 3 weeks after treatment
How it was run: as §2

[26] = test system: Echinochloa crus-galli; assay: Herbicidal activity, preemergence test; settings: pre; sprayed onto soil, 800 g of active material per hectare; evaluated 3 weeks after treatment
How it was run: as §2

[27] = test system: Viola arvensis; assay: Herbicidal activity, preemergence test; settings: pre; sprayed onto soil, 800 g of active material per hectare; evaluated 3 weeks after treatment
How it was run: as §2

[28] = test system: Triticum aestivum; assay: Herbicidal activity, preemergence test; settings: pre; sprayed onto soil, 800 g of active material per hectare; evaluated 3 weeks after treatment
How it was run: as §2

[29] = test system: Alopecurus myosuroides; assay: Herbicidal activity, preemergence test; settings: pre; sprayed onto soil, 800 g of active material per hectare; evaluated 3 weeks after treatment
How it was run: as §2

[30] = test system: Lamium purpureum; assay: Herbicidal activity, preemergence test; settings: pre; sprayed onto soil, 800 g of active material per hectare; evaluated 3 weeks after treatment
How it was run: as §2

[31] = test system: Setaria viridis; assay: Herbicidal activity, preemergence test; settings: pre; sprayed onto soil, 800 g of active material per hectare; evaluated 3 weeks after treatment
How it was run: as §2

[32] = test system: Zea mays; assay: Herbicidal activity, preemergence test; settings: pre; sprayed onto soil, 800 g of active material per hectare; evaluated 3 weeks after treatment
How it was run: as §2

[33] = test system: Amaranthus retroflexus; assay: Herbicidal activity, preemergence test; settings: pre; sprayed onto soil, 800 g of active material per hectare; evaluated 3 weeks after treatment
How it was run: as §2

[34] = test system: Gossypium hirsutum; assay: Herbicidal activity, preemergence test; settings: pre; sprayed onto soil, 800 g of active material per hectare; evaluated 3 weeks after treatment
How it was run: as §2

[35] = test system: Glycine max; assay: Herbicidal activity, preemergence test; settings: pre; sprayed onto soil, 800 g of active material per hectare; evaluated 3 weeks after treatment
How it was run: as §2

[36] = test system: Stellaria media; assay: Herbicidal activity, preemergence test; settings: pre; sprayed onto soil, 800 g of active material per hectare; evaluated 3 weeks after treatment
How it was run: as §2

Compound | HELAN control rating (0-9) [1] | IPOHE control rating (0-9) [2] | AMBEL control rating (0-9) [3] | VERPE control rating (0-9) [4] | HORVW control rating (0-9) [5] | GALAP control rating (0-9) [6] | ABUTH control rating (0-9) [7] | ECHCG control rating (0-9) [8] | VIOAR control rating (0-9) [9] | STEME control rating (0-9) [10] | TRZAW control rating (0-9) [11] | ALOMY control rating (0-9) [12] | LAMPU control rating (0-9) [13] | SETVI control rating (0-9) [14] | ZEAMX control rating (0-9) [15] | AMARE control rating (0-9) [16] | GOSHI control rating (0-9) [17] | GLXMA control rating (0-9) [18] | HELAN control rating (0-9) [19] | IPOHE control rating (0-9) [20] | further results
CC(NC(=O)c1nnc(-c2ccccc2)o1)c1cccs1 (racemic) [Example 1] | 9 (complete kill) | 5 (definite injury) | 8 (approaching complete kill) | 9 (complete kill) | 5 (definite injury) | 6 (herbicidal effect) | 8 (approaching complete kill) | 6 (herbicidal effect) | 9 (complete kill) | 9 (complete kill) | 2 (slight effect) | 2 (slight effect) | 4 (injury) | 9 (complete kill) | 3 (moderate effect) | 9 (complete kill) | 9 (complete kill) | 8 (approaching complete kill) | 0 (no effect) | 5 (definite injury) | AMBEL control rating (0-9) [21]: 0 (no effect); VERPE control rating (0-9) [22]: 5 (definite injury); HORVW control rating (0-9) [23]: 0 (no effect); GALAP control rating (0-9) [24]: 0 (no effect); ABUTH control rating (0-9) [25]: 0 (no effect); ECHCG control rating (0-9) [26]: 0 (no effect); VIOAR control rating (0-9) [27]: 6 (herbicidal effect); TRZAW control rating (0-9) [28]: 0 (no effect); ALOMY control rating (0-9) [29]: 0 (no effect); LAMPU control rating (0-9) [30]: 7 (good herbicidal effect); SETVI control rating (0-9) [31]: 4 (injury); ZEAMX control rating (0-9) [32]: 0 (no effect); AMARE control rating (0-9) [33]: 0 (no effect); GOSHI control rating (0-9) [34]: 0 (no effect); GLXMA control rating (0-9) [35]: 0 (no effect)
CC(NC(=O)c1nnc(C(C)(C)C)o1)c1cccs1 (racemic) [Example 5] | 8 (approaching complete kill) | 6 (herbicidal effect) | 9 (complete kill) | 9 (complete kill) | 4 (injury) | 5 (definite injury) | 8 (approaching complete kill) | 4 (injury) | 7 (good herbicidal effect) | 8 (approaching complete kill) | 4 (injury) | 3 (moderate effect) | 1 (trace effect) | 6 (herbicidal effect) | 4 (injury) | 5 (definite injury) | 9 (complete kill) | 8 (approaching complete kill) | 0 (no effect) | 0 (no effect) | AMBEL control rating (0-9) [21]: 1 (trace effect); VERPE control rating (0-9) [22]: 8 (approaching complete kill); HORVW control rating (0-9) [23]: 0 (no effect); GALAP control rating (0-9) [24]: 0 (no effect); ABUTH control rating (0-9) [25]: 7 (good herbicidal effect); ECHCG control rating (0-9) [26]: 6 (herbicidal effect); VIOAR control rating (0-9) [27]: 6 (herbicidal effect); STEME control rating (0-9) [36]: 8 (approaching complete kill); TRZAW control rating (0-9) [28]: 0 (no effect); ALOMY control rating (0-9) [29]: 4 (injury); LAMPU control rating (0-9) [30]: 2 (slight effect); SETVI control rating (0-9) [31]: 8 (approaching complete kill); ZEAMX control rating (0-9) [32]: 0 (no effect); AMARE control rating (0-9) [33]: 5 (definite injury); GOSHI control rating (0-9) [34]: 0 (no effect); GLXMA control rating (0-9) [35]: 0 (no effect)
C[C@H](NC(=O)c1nnc(C(C)(C)C)o1)c1ccccc1 [Example 2, (S)-5-tert-Butyl-[1,3,4]oxadiazole-2-carboxylic acid (1-phenylethyl)amide] | 4 (injury) | 5 (definite injury) | 5 (definite injury) | 7 (good herbicidal effect) | 1 (trace effect) | 4 (injury) | 6 (herbicidal effect) | 3 (moderate effect) | 5 (definite injury) | 6 (herbicidal effect) | 3 (moderate effect) | 0 (no effect) | 2 (slight effect) | 4 (injury) | 1 (trace effect) | 6 (herbicidal effect) | 4 (injury) | 3 (moderate effect) | 0 (no effect) | 0 (no effect) | AMBEL control rating (0-9) [21]: 3 (moderate effect); VERPE control rating (0-9) [22]: 8 (approaching complete kill); HORVW control rating (0-9) [23]: 0 (no effect); GALAP control rating (0-9) [24]: 0 (no effect); ABUTH control rating (0-9) [25]: 4 (injury); ECHCG control rating (0-9) [26]: 0 (no effect); VIOAR control rating (0-9) [27]: 5 (definite injury); STEME control rating (0-9) [36]: 5 (definite injury); TRZAW control rating (0-9) [28]: 0 (no effect); ALOMY control rating (0-9) [29]: 2 (slight effect); LAMPU control rating (0-9) [30]: 0 (no effect); SETVI control rating (0-9) [31]: 5 (definite injury); ZEAMX control rating (0-9) [32]: 0 (no effect); AMARE control rating (0-9) [33]: 5 (definite injury); GOSHI control rating (0-9) [34]: 0 (no effect); GLXMA control rating (0-9) [35]: 0 (no effect)
